In US6936585B2, “Corticotropin releasing factor 2 receptor agonists” (priority 2002, dated 2005):
Where two headings read alike, the source gives them in different places. Ends that are not written are not given here. Peptide text beside a SMILES is read from it.

Tests used:
CRF2R = target: T1, CRF2R (Homo sapiens, UniProt Q13324); test: CRF2R agonist activation (EC50 / Emax), called comparative CRF binding; format: cell-based; settings: for EC50: read-out: CRF2R EC50
T1 sequence (Q13324 1-411): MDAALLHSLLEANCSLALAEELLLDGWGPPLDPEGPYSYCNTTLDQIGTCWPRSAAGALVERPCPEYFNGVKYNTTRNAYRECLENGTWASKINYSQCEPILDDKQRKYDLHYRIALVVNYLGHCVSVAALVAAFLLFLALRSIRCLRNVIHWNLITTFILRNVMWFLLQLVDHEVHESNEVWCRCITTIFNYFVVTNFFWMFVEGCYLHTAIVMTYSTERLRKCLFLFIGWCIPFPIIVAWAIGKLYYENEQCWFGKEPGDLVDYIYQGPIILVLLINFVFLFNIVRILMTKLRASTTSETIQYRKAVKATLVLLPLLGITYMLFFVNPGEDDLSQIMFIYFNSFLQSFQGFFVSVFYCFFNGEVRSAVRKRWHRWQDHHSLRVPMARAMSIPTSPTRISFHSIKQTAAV
How it was run: (§1)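 Read-out is Gαs-driven cAMP induction, quantified directly in lysates or through CRE-reporter gene expression, after treating CRF1R- or CRF2R-expressing cells with peptide. Vehicle-treated cells serve as the comparison.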

CRF1R = target: T2, CRF1R (Homo sapiens, UniProt P34998); test: CRF1R agonist activation (EC50 / Emax), called comparative CRF binding; format: cell-based; settings: for EC50: read-out: CRF1R EC50
T2 sequence (P34998 24-415): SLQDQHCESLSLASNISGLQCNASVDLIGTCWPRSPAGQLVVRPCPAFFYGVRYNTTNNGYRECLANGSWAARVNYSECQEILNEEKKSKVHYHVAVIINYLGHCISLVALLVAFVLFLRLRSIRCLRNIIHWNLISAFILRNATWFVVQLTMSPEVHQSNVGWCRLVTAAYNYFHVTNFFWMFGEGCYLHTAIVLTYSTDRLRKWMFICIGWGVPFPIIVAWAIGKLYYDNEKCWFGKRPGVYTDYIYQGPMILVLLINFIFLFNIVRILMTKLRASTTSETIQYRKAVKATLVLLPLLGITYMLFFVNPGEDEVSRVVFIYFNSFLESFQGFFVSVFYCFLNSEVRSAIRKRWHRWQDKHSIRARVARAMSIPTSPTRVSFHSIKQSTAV
How it was run: as §1

Compound	Emax (CRF2R; read-out: CRF2R Emax) [%]	Emax (CRF1R; read-out: CRF1R Emax) [%]	Emax (CRF2R; Emax, read-out: CRF2R (Emax %)) [%]	Emax (CRF1R; Emax, read-out: CRF1R (Emax %)) [%]	EC50 (CRF2R) [nM]	EC50 (CRF1R) [nM]
SEEPPISLDVPIGLLQEVLEMARAEQLAQQAHSNRKLMEII-NH2 [compound 162]	7	11				
CC[C@H](C)[C@H](NC(=O)[C@H](CCC(N)=O)NC(=O)[C@H](C)NC(=O)[C@H](CCSC)NC(=O)[C@H](CC(C)C)NC(=O)[C@H](Cc1c[nH]cn1)NC(=O)[C@H](C)NC(=O)[C@H](CC(N)=O)NC(=O)[C@H](C)NC(=O)[C@H](C)NC(=O)[C@H](C)NC(=O)[C@H](CCC(N)=O)NC(=O)[C@H](C)NC(=O)[C@H](CCCNC(=N)N)NC(=O)[C@H](CC(C)C)NC(=O)[C@H](CC(N)=O)NC(=O)[C@H](CCCCN)NC(=O)[C@H](C)NC(=O)[C@H](CCCCN)NC(=O)[C@H](C)NC(=O)[C@@H](NC(=O)[C@H](CC(N)=O)NC(=O)[C@H](Cc1ccccc1)NC(=O)[C@H](CC(C)C)NC(=O)[C@H](CC(C)C)NC(=O)[C@H](CC(N)=O)NC(=O)[C@H](CCSC)NC(=O)[C@@H](NC(=O)[C@H](CC(N)=O)NC(=O)[C@@H](NC(=O)[C@@H]1CCCN1C(=O)[C@@H](NC(=O)[C@H](CC(=O)O)NC(=O)[C@H](CC(C)C)NC(=O)[C@H](CO)NC(=O)[C@H](CC(C)C)NC(=O)[C@@H](NC(=O)[C@H](Cc1ccccc1)NC(=O)[C@H](CCCCN)NC(=O)[C@@H](N)[C@@H](C)O)[C@@H](C)O)C(C)C)[C@@H](C)O)[C@@H](C)CC)[C@@H](C)CC)C(N)=O [hUroIII, human urocortin III, reference compound] (H-TKFTLSLDVPTNIMNLLFNIAKAKNLRAQAAANAHLMAQI-NH2)			60	10.2		
CC[C@H](C)[C@H](N)C(=O)N[C@H](C(=O)N[C@@H](CC(C)C)C(=O)N[C@@H](CO)C(=O)N[C@@H](CC(C)C)C(=O)N[C@@H](CC(=O)O)C(=O)N[C@H](C(=O)N1CCC[C@H]1C(=O)N[C@H](C(=O)NCC(=O)N[C@@H](CC(C)C)C(=O)N[C@@H](CC(C)C)C(=O)N[C@@H](CCC(N)=O)C(=O)N[C@H](C(=O)N[C@@H](CC(C)C)C(=O)N[C@@H](CC(C)C)C(=O)N[C@@H](CCC(=O)O)C(=O)N[C@@H](CCC(N)=O)C(=O)N[C@@H](CCC(=O)O)C(=O)N[C@@H](CCCNC(=N)N)C(=O)N[C@@H](CCC(N)=O)C(=O)N[C@@H](CCC(=O)O)C(=O)N[C@@H](C)C(=O)N[C@@H](C)C(=O)N[C@@H](CCCNC(=N)N)C(=O)N[C@@H](CCC(=O)O)C(=O)N[C@@H](CCC(N)=O)C(=O)N[C@@H](C)C(=O)N[C@H](C(=O)N[C@H](C(=O)N[C@@H](CC(N)=O)C(=O)N[C@@H](C)C(=O)N[C@@H](CCCNC(=N)N)C(=O)N[C@H](C(=O)N[C@@H](CC(C)C)C(=O)N[C@@H](C)C(=O)N[C@@H](CCCNC(=N)N)C(=O)N[C@H](C(N)=O)C(C)C)[C@@H](C)CC)[C@@H](C)O)[C@@H](C)O)[C@@H](C)CC)[C@@H](C)CC)C(C)C)C(C)C [compound 118] (H-IVLSLDVPIGLLQILLEQERQEAAREQATTNARILARV-NH2; N-terminus assumed)	100	5				
CC[C@H](C)[C@H](N)C(=O)N[C@H](C(=O)N[C@@H](CC(C)C)C(=O)N[C@@H](CO)C(=O)N[C@@H](CC(C)C)C(=O)N[C@@H](CC(=O)O)C(=O)N[C@H](C(=O)N1CCC[C@H]1C(=O)N[C@H](C(=O)NCC(=O)N[C@@H](CC(C)C)C(=O)N[C@@H](CC(C)C)C(=O)N[C@@H](CCC(N)=O)C(=O)N[C@H](C(=O)N[C@@H](CC(C)C)C(=O)N[C@@H](CC(C)C)C(=O)N[C@@H](CCC(=O)O)C(=O)N[C@@H](CCC(N)=O)C(=O)N[C@@H](C)C(=O)N[C@@H](CCCNC(=N)N)C(=O)N[C@@H](CCC(N)=O)C(=O)N[C@@H](CCC(=O)O)C(=O)N[C@@H](C)C(=O)N[C@@H](C)C(=O)N[C@@H](CCCNC(=N)N)C(=O)N[C@@H](CCC(=O)O)C(=O)N[C@@H](CCC(N)=O)C(=O)N[C@@H](C)C(=O)N[C@H](C(=O)N[C@H](C(=O)N[C@@H](CC(N)=O)C(=O)N[C@@H](C)C(=O)N[C@@H](CCCNC(=N)N)C(=O)N[C@H](C(=O)N[C@@H](CC(C)C)C(=O)N[C@@H](C)C(=O)N[C@@H](CCCNC(=N)N)C(=O)N[C@H](C(N)=O)C(C)C)[C@@H](C)CC)[C@@H](C)O)[C@@H](C)O)[C@@H](C)CC)[C@@H](C)CC)C(C)C)C(C)C [compound 123] (H-IVLSLDVPIGLLQILLEQARQEAAREQATTNARILARV-NH2; N-terminus assumed)	93.8	9.6				
CC[C@H](C)[C@H](N)C(=O)N[C@H](C(=O)N[C@@H](CC(C)C)C(=O)N[C@@H](CO)C(=O)N[C@@H](CC(C)C)C(=O)N[C@@H](CC(=O)O)C(=O)N[C@H](C(=O)N1CCC[C@H]1C(=O)N[C@H](C(=O)NCC(=O)N[C@@H](CC(C)C)C(=O)N[C@@H](CC(C)C)C(=O)N[C@@H](CCC(N)=O)C(=O)N[C@H](C(=O)N[C@@H](CC(C)C)C(=O)N[C@@H](CC(C)C)C(=O)N[C@@H](CCC(=O)O)C(=O)N[C@@H](CCC(N)=O)C(=O)N[C@H](C(=O)N[C@@H](CCCNC(=N)N)C(=O)N[C@@H](C)C(=O)N[C@@H](CCCNC(=N)N)C(=O)N[C@@H](C)C(=O)N[C@@H](C)C(=O)N[C@@H](CCCNC(=N)N)C(=O)N[C@@H](CCC(=O)O)C(=O)N[C@@H](CCC(N)=O)C(=O)N[C@@H](C)C(=O)N[C@H](C(=O)N[C@H](C(=O)N[C@@H](CC(N)=O)C(=O)N[C@@H](C)C(=O)N[C@@H](CCCNC(=N)N)C(=O)N[C@H](C(=O)N[C@@H](CC(C)C)C(=O)N[C@@H](C)C(=O)N[C@@H](CCCNC(=N)N)C(=O)N[C@H](C(N)=O)C(C)C)[C@@H](C)CC)[C@@H](C)O)[C@@H](C)O)[C@@H](C)O)[C@@H](C)CC)[C@@H](C)CC)C(C)C)C(C)C [compound 128] (H-IVLSLDVPIGLLQILLEQTRARAAREQATTNARILARV-NH2; N-terminus assumed)	98	8			2.85	> 100
CC[C@H](C)[C@H](N)C(=O)N[C@H](C(=O)N[C@@H](CC(C)C)C(=O)N[C@@H](CO)C(=O)N[C@@H](CC(C)C)C(=O)N[C@@H](CC(=O)O)C(=O)N[C@H](C(=O)N1CCC[C@H]1C(=O)N[C@H](C(=O)NCC(=O)N[C@@H](CC(C)C)C(=O)N[C@@H](CC(C)C)C(=O)N[C@@H](CCC(N)=O)C(=O)N[C@H](C(=O)N[C@@H](CC(C)C)C(=O)N[C@@H](CC(C)C)C(=O)N[C@@H](CCC(=O)O)C(=O)N[C@@H](CCC(N)=O)C(=O)N[C@@H](C)C(=O)N[C@@H](CCCCN)C(=O)N[C@@H](C)C(=O)N[C@@H](CC(=O)O)C(=O)N[C@@H](C)C(=O)N[C@@H](C)C(=O)N[C@@H](CCCNC(=N)N)C(=O)N[C@@H](CCC(=O)O)C(=O)N[C@@H](CCC(N)=O)C(=O)N[C@@H](C)C(=O)N[C@H](C(=O)N[C@H](C(=O)N[C@@H](CC(N)=O)C(=O)N[C@@H](C)C(=O)N[C@@H](CCCNC(=N)N)C(=O)N[C@H](C(=O)N[C@@H](CC(C)C)C(=O)N[C@@H](C)C(=O)N[C@@H](CCCNC(=N)N)C(=O)N[C@H](C(N)=O)C(C)C)[C@@H](C)CC)[C@@H](C)O)[C@@H](C)O)[C@@H](C)CC)[C@@H](C)CC)C(C)C)C(C)C [compound 131] (H-IVLSLDVPIGLLQILLEQAKADAAREQATTNARILARV-NH2; N-terminus assumed)	91	8			5.25	> 100
CC[C@H](C)[C@H](N)C(=O)N[C@H](C(=O)N[C@@H](CC(C)C)C(=O)N[C@@H](CO)C(=O)N[C@@H](CC(C)C)C(=O)N[C@@H](CC(=O)O)C(=O)N[C@H](C(=O)N1CCC[C@H]1C(=O)N[C@H](C(=O)NCC(=O)N[C@@H](CC(C)C)C(=O)N[C@@H](CC(C)C)C(=O)N[C@@H](CCC(N)=O)C(=O)N[C@H](C(=O)N[C@@H](CC(C)C)C(=O)N[C@@H](CC(C)C)C(=O)N[C@@H](CCC(=O)O)C(=O)N[C@@H](CCC(N)=O)C(=O)N[C@@H](CCCNC(=N)N)C(=O)N[C@@H](CCCNC(=N)N)C(=O)N[C@@H](C)C(=O)N[C@@H](C)C(=O)N[C@@H](CCCNC(=N)N)C(=O)N[C@@H](CCC(=O)O)C(=O)N[C@@H](CCC(N)=O)C(=O)N[C@@H](C)C(=O)N[C@H](C(=O)N[C@H](C(=O)N[C@@H](CC(N)=O)C(=O)N[C@@H](C)C(=O)N[C@@H](CCCNC(=N)N)C(=O)N[C@H](C(=O)N[C@@H](CC(C)C)C(=O)N[C@@H](C)C(=O)N[C@@H](CCCNC(=N)N)C(=O)N[C@H](C(N)=O)C(C)C)[C@@H](C)CC)[C@@H](C)O)[C@@H](C)O)[C@@H](C)CC)[C@@H](C)CC)C(C)C)C(C)C [compound 133] (H-IVLSLDVPIGLLQILLEQRRAAREQATTNARILARV-NH2; N-terminus assumed)	88	4			12.2	> 100
SQEIVLSLDVPIGLLREVLEMTKADQLAQQAHSNRKLLDIA-NH2 [compound 152]	19	4				
